± gives the expanded uncertainty stated by the source.
Assay: mn = molality of the nth substance listed, in mol/kg
Details: Liquid, Vibrating tube method

[Cl-].[Li+] [lithium chloride] + CCO
mass density [kg/m3]
Details | 348.15 K | 373.15 K
290 kPa, m1 = 0.1049 | – | 717.74 ± 0.43
310 kPa, m1 = 0.3023 | – | 725.29 ± 0.43
320 kPa, m1 = 2.022 | – | 781.71 ± 0.42
840 kPa, m1 = 1.222 | – | 757.56 ± 0.42
960 kPa, m1 = 0.5873 | – | 736.55 ± 0.43
980 kPa, m1 = 2.88 | – | 805.91 ± 0.42
5060 kPa, m1 = 0.3023 | – | 731.82 ± 0.44
5060 kPa, m1 = 1.222 | – | 762.98 ± 0.43
5140 kPa, m1 = 0.1049 | – | 724.52 ± 0.44
5140 kPa, m1 = 2.88 | – | 810.39 ± 0.43
5420 kPa, m1 = 0.5873 | – | 742.51 ± 0.44
5860 kPa, m1 = 2.022 | – | 788.43 ± 0.43
9980 kPa, m1 = 2.88 | – | 815.52 ± 0.44
10060 kPa, m1 = 1.222 | – | 769.02 ± 0.45
10070 kPa, m1 = 0.3023 | – | 738.32 ± 0.46
10080 kPa, m1 = 0.1049 | – | 731.05 ± 0.46
10090 kPa, m1 = 0.5873 | – | 748.41 ± 0.46
10090 kPa, m1 = 2.022 | – | 793.18 ± 0.44
14620 kPa, m1 = 2.88 | – | 819.69 ± 0.45
15020 kPa, m1 = 0.3023 | – | 744.36 ± 0.48
15420 kPa, m1 = 0.1049 | – | 737.69 ± 0.49
15720 kPa, m1 = 2.022 | – | 799 ± 0.46
15740 kPa, m1 = 1.222 | – | 775.35 ± 0.47
15850 kPa, m1 = 0.5873 | – | 755.19 ± 0.48
20080 kPa, m1 = 0.1049 | – | 743.13 ± 0.51
20090 kPa, m1 = 0.3023 | 772.2 ± 0.49 | –
20090 kPa, m1 = 0.5873 | – | 759.84 ± 0.5
20140 kPa, m1 = 1.222 | 800.25 ± 0.47 | –
20310 kPa, m1 = 0.3023 | – | 750.38 ± 0.51
20310 kPa, m1 = 2.022 | – | 803.31 ± 0.47
20340 kPa, m1 = 1.222 | – | 780.06 ± 0.49
20480 kPa, m1 = 0.5873 | 781.78 ± 0.49 | –
21420 kPa, m1 = 2.88 | – | 825.53 ± 0.46
24940 kPa, m1 = 2.88 | – | 828.37 ± 0.47
25050 kPa, m1 = 2.022 | – | 807.37 ± 0.49
25070 kPa, m1 = 1.222 | 804.33 ± 0.49 | –
25080 kPa, m1 = 1.222 | – | 784.55 ± 0.5
25320 kPa, m1 = 0.5873 | 786.04 ± 0.5 | –
25410 kPa, m1 = 0.1049 | – | 748.94 ± 0.54
25410 kPa, m1 = 0.3023 | – | 755.77 ± 0.53
25420 kPa, m1 = 2.022 | 826.11 ± 0.48 | –
25640 kPa, m1 = 2.88 | 846.96 ± 0.46 | –
25840 kPa, m1 = 0.1049 | 770.86 ± 0.52 | –
25840 kPa, m1 = 0.5873 | – | 765.68 ± 0.52
25860 kPa, m1 = 0.3023 | 777.45 ± 0.51 | –
30060 kPa, m1 = 0.3023 | 781.03 ± 0.53 | 760.33 ± 0.55
30060 kPa, m1 = 2.022 | – | 811.2 ± 0.51
30150 kPa, m1 = 0.5873 | – | 769.7 ± 0.54
30150 kPa, m1 = 2.88 | – | 832.41 ± 0.49
30160 kPa, m1 = 2.022 | 829.46 ± 0.49 | –
30410 kPa, m1 = 1.222 | 808.41 ± 0.51 | –
30610 kPa, m1 = 0.5873 | 790.37 ± 0.53 | –
30710 kPa, m1 = 0.1049 | 775.12 ± 0.54 | –
30840 kPa, m1 = 2.88 | 850.58 ± 0.48 | –
35190 kPa, m1 = 2.88 | 853.39 ± 0.49 | –
35240 kPa, m1 = 0.1049 | 778.84 ± 0.56 | –
35420 kPa, m1 = 1.222 | 811.91 ± 0.53 | –
35610 kPa, m1 = 2.022 | 832.94 ± 0.51 | –
35840 kPa, m1 = 0.3023 | 785.62 ± 0.56 | –
35840 kPa, m1 = 0.5873 | 794.33 ± 0.55 | –
39860 kPa, m1 = 0.5873 | 797.14 ± 0.57 | –
39860 kPa, m1 = 2.88 | 856.19 ± 0.5 | –
39930 kPa, m1 = 0.1049 | 782.45 ± 0.59 | –
39940 kPa, m1 = 0.3023 | 788.64 ± 0.58 | –
39960 kPa, m1 = 2.022 | 835.44 ± 0.52 | –
39970 kPa, m1 = 1.222 | 814.81 ± 0.54 | –
